Laboratory results: the CheMixHub viscosity set
± gives the uncertainty stated by the source.

Assay: xn = mol fraction of the nth substance listed

With CCOCCO + CC#N the viscosity (298.15 K, 101.33 kPa, x1 = 0.1016) was 0.458 ± 0.004 mPa·s, the viscosity (298.15 K, 101.33 kPa, x1 = 0.2016) was 0.546 ± 0.004 mPa·s and the viscosity (298.15 K, 101.33 kPa, x1 = 0.2865) was 0.638 ± 0.005 mPa·s. The viscosity (298.15 K, 101.33 kPa, x1 = 0.4004) was 0.79 ± 0.005 mPa·s, the viscosity (298.15 K, 101.33 kPa, x1 = 0.5026) was 0.946 ± 0.006 mPa·s and the viscosity (298.15 K, 101.33 kPa, x1 = 0.6026) was 1.128 ± 0.007 mPa·s. The viscosity (298.15 K, 101.33 kPa, x1 = 0.7122) was 1.346 ± 0.009 mPa·s, the viscosity (298.15 K, 101.33 kPa, x1 = 0.7978) was 1.524 ± 0.01 mPa·s and the viscosity (298.15 K, 101.33 kPa, x1 = 0.8997) was 1.786 ± 0.011 mPa·s. The viscosity (303.15 K, 101.33 kPa, x1 = 0.1016) was 0.389 ± 0.003 mPa·s, the viscosity (303.15 K, 101.33 kPa, x1 = 0.2016) was 0.461 ± 0.004 mPa·s and the viscosity (303.15 K, 101.33 kPa, x1 = 0.2865) was 0.535 ± 0.004 mPa·s. The viscosity (303.15 K, 101.33 kPa, x1 = 0.4004) was 0.655 ± 0.005 mPa·s, the viscosity (303.15 K, 101.33 kPa, x1 = 0.5026) was 0.781 ± 0.005 mPa·s and the viscosity (303.15 K, 101.33 kPa, x1 = 0.6026) was 0.921 ± 0.006 mPa·s. The viscosity (303.15 K, 101.33 kPa, x1 = 0.7122) was 1.075 ± 0.007 mPa·s, the viscosity (303.15 K, 101.33 kPa, x1 = 0.7978) was 1.236 ± 0.008 mPa·s and the viscosity (303.15 K, 101.33 kPa, x1 = 0.8997) was 1.435 ± 0.009 mPa·s. The viscosity (308.15 K, 101.33 kPa, x1 = 0.1016) was 0.37 ± 0.003 mPa·s, the viscosity (308.15 K, 101.33 kPa, x1 = 0.2016) was 0.435 ± 0.003 mPa·s and the viscosity (308.15 K, 101.33 kPa, x1 = 0.2865) was 0.501 ± 0.004 mPa·s. The viscosity (308.15 K, 101.33 kPa, x1 = 0.4004) was 0.608 ± 0.004 mPa·s, the viscosity (308.15 K, 101.33 kPa, x1 = 0.5026) was 0.721 ± 0.005 mPa·s and the viscosity (308.15 K, 101.33 kPa, x1 = 0.6026) was 0.845 ± 0.006 mPa·s. It also gave a viscosity (308.15 K, 101.33 kPa, x1 = 0.7122) of 0.978 ± 0.006 mPa·s, a viscosity (308.15 K, 101.33 kPa, x1 = 0.7978) of 1.122 ± 0.007 mPa·s and a viscosity (308.15 K, 101.33 kPa, x1 = 0.8997) of 1.295 ± 0.008 mPa·s.

CC(C)CCCCCCCOC(=O)c1ccccc1C(=O)OCCCCCCCC(C)C + O showed a viscosity (293.23 K, 101 kPa, x2 = 0.0005) of 122.8 ± 2.6 mPa·s, a viscosity (293.23 K, 101 kPa, x2 = 0.00265) of 122.3 ± 2.6 mPa·s and a viscosity (298.26 K, 101 kPa, x2 = 0.0005) of 87.79 ± 1.6 mPa·s. It also gave a viscosity (298.26 K, 101 kPa, x2 = 0.00265) of 87.38 ± 1.6 mPa·s.

For Oc1ccc(Cl)cc1 + CCCCN(CCCC)CCCC, the viscosity (298.16 K, 101 kPa, x1 = 0.5057) was 14.04 ± 0.29 mPa·s, the viscosity (298.16 K, 101 kPa, x1 = 0.5498) was 23.8 ± 0.51 mPa·s and the viscosity (298.16 K, 101 kPa, x1 = 0.6004) was 46.15 ± 1.1 mPa·s. It also gave a viscosity (298.16 K, 101 kPa, x1 = 0.6534) of 94.2 ± 3.1 mPa·s, a viscosity (298.16 K, 101 kPa, x1 = 0.7034) of 222.8 ± 12 mPa·s and a viscosity (298.16 K, 101 kPa, x1 = 0.714) of 261.7 ± 15 mPa·s. The viscosity (298.16 K, 101 kPa, x1 = 0.7471) was 389.7 ± 27 mPa·s, the viscosity (298.16 K, 101 kPa, x1 = 0.7798) was 438.6 ± 32 mPa·s and the viscosity (298.16 K, 101 kPa, x1 = 0.8047) was 424.7 ± 30 mPa·s. It also gave a viscosity (298.16 K, 101 kPa, x1 = 0.8194) of 339.1 ± 21 mPa·s, a viscosity (298.16 K, 101 kPa, x1 = 0.8508) of 228.2 ± 12 mPa·s and a viscosity (298.16 K, 101 kPa, x1 = 0.8615) of 173.1 ± 7.7 mPa·s. The viscosity (298.16 K, 101 kPa, x1 = 0.88) was 141.3 ± 5.6 mPa·s, the viscosity (298.16 K, 101 kPa, x1 = 0.9041) was 99.6 ± 3.2 mPa·s and the viscosity (298.16 K, 101 kPa, x1 = 0.915) was 73.06 ± 1.9 mPa·s. For the same compound, the viscosity (298.16 K, 101 kPa, x1 = 0.9457) was 46.28 ± 0.98 mPa·s, the viscosity (298.16 K, 101 kPa, x1 = 0.9798) was 26.23 ± 0.43 mPa·s and the viscosity (298.16 K, 101 kPa, x2 = 0.002811) was 19.56 ± 0.28 mPa·s.

With CCOCCO + CCCCCCCO the viscosity (298.15 K, 101 kPa, x1 = 0.1253) was 4.967 ± 0.046 mPa·s, the viscosity (298.15 K, 101 kPa, x1 = 0.2438) was 4.207 ± 0.048 mPa·s and the viscosity (298.15 K, 101 kPa, x1 = 0.3559) was 3.655 ± 0.049 mPa·s. For the same compound, the viscosity (298.15 K, 101 kPa, x1 = 0.4623) was 3.23 ± 0.049 mPa·s, the viscosity (298.15 K, 101 kPa, x1 = 0.5632) was 2.902 ± 0.05 mPa·s and the viscosity (298.15 K, 101 kPa, x1 = 0.6592) was 2.617 ± 0.05 mPa·s. The viscosity (298.15 K, 101 kPa, x1 = 0.7505) was 2.383 ± 0.05 mPa·s, the viscosity (298.15 K, 101 kPa, x1 = 0.8376) was 2.2 ± 0.049 mPa·s and the viscosity (298.15 K, 101 kPa, x1 = 0.9207) was 2.041 ± 0.049 mPa·s.

In the case of CCOCCO + Cc1ccccc1, the viscosity (298.15 K, 101 kPa, x1 = 0.056) is reported as 0.576 ± 0.011 mPa·s, the viscosity (298.15 K, 101 kPa, x1 = 0.1494) is reported as 0.627 ± 0.011 mPa·s and the viscosity (298.15 K, 101 kPa, x1 = 0.2493) is reported as 0.69 ± 0.012 mPa·s. The viscosity (298.15 K, 101 kPa, x1 = 0.3539) was 0.771 ± 0.013 mPa·s, the viscosity (298.15 K, 101 kPa, x1 = 0.449) was 0.859 ± 0.015 mPa·s and the viscosity (298.15 K, 101 kPa, x1 = 0.5019) was 0.915 ± 0.015 mPa·s. The viscosity (298.15 K, 101 kPa, x1 = 0.5488) was 0.969 ± 0.016 mPa·s, the viscosity (298.15 K, 101 kPa, x1 = 0.6514) was 1.107 ± 0.018 mPa·s and the viscosity (298.15 K, 101 kPa, x1 = 0.7465) was 1.261 ± 0.021 mPa·s. It also gave a viscosity (298.15 K, 101 kPa, x1 = 0.8514) of 1.468 ± 0.024 mPa·s, a viscosity (298.15 K, 101 kPa, x1 = 0.9527) of 1.716 ± 0.027 mPa·s and a viscosity (308.15 K, 101 kPa, x1 = 0.056) of 0.517 ± 0.01 mPa·s. The viscosity (308.15 K, 101 kPa, x1 = 0.1494) was 0.554 ± 0.01 mPa·s, the viscosity (308.15 K, 101 kPa, x1 = 0.2493) was 0.601 ± 0.011 mPa·s and the viscosity (308.15 K, 101 kPa, x1 = 0.3539) was 0.66 ± 0.012 mPa·s. For the same compound, the viscosity (308.15 K, 101 kPa, x1 = 0.449) was 0.723 ± 0.013 mPa·s, the viscosity (308.15 K, 101 kPa, x1 = 0.5019) was 0.763 ± 0.013 mPa·s and the viscosity (308.15 K, 101 kPa, x1 = 0.5488) was 0.802 ± 0.014 mPa·s. It also gave a viscosity (308.15 K, 101 kPa, x1 = 0.6514) of 0.899 ± 0.015 mPa·s, a viscosity (308.15 K, 101 kPa, x1 = 0.7465) of 1.007 ± 0.017 mPa·s and a viscosity (308.15 K, 101 kPa, x1 = 0.8514) of 1.149 ± 0.019 mPa·s. The viscosity (308.15 K, 101 kPa, x1 = 0.9527) was 1.317 ± 0.022 mPa·s.

Work on N#C[C-](C#N)C#N.OCCC[n+]1ccccc1 + c1ccsc1 yielded a viscosity (298.15 K, 101 kPa, x1 = 0.5955) of 36.55 ± 3.7 mPa·s and a viscosity (313.15 K, 101 kPa, x1 = 0.9377) of 39.55 ± 4 mPa·s.

Work on CNC(C)=O + O=C1CCCO1 yielded a viscosity (303.15 K, 101 kPa, x1 = 0.0549) of 1.516 ± 0.11 mPa·s, a viscosity (303.15 K, 101 kPa, x1 = 0.1816) of 1.586 ± 0.11 mPa·s and a viscosity (303.15 K, 101 kPa, x1 = 0.2715) of 1.642 ± 0.12 mPa·s. The viscosity (303.15 K, 101 kPa, x1 = 0.3602) was 1.719 ± 0.12 mPa·s, the viscosity (303.15 K, 101 kPa, x1 = 0.4477) was 1.82 ± 0.13 mPa·s and the viscosity (303.15 K, 101 kPa, x1 = 0.5352) was 1.99 ± 0.14 mPa·s. The viscosity (303.15 K, 101 kPa, x1 = 0.6411) was 2.215 ± 0.15 mPa·s, the viscosity (303.15 K, 101 kPa, x1 = 0.7239) was 2.45 ± 0.17 mPa·s and the viscosity (303.15 K, 101 kPa, x1 = 0.9033) was 3.147 ± 0.21 mPa·s. The viscosity (308.15 K, 101 kPa, x1 = 0.0549) was 1.408 ± 0.1 mPa·s, the viscosity (308.15 K, 101 kPa, x1 = 0.1816) was 1.452 ± 0.1 mPa·s and the viscosity (308.15 K, 101 kPa, x1 = 0.2715) was 1.51 ± 0.11 mPa·s. For the same compound, the viscosity (308.15 K, 101 kPa, x1 = 0.3602) was 1.572 ± 0.11 mPa·s, the viscosity (308.15 K, 101 kPa, x1 = 0.4477) was 1.662 ± 0.12 mPa·s and the viscosity (308.15 K, 101 kPa, x1 = 0.5352) was 1.78 ± 0.12 mPa·s. It also gave a viscosity (308.15 K, 101 kPa, x1 = 0.6411) of 1.979 ± 0.14 mPa·s, a viscosity (308.15 K, 101 kPa, x1 = 0.7239) of 2.178 ± 0.15 mPa·s and a viscosity (308.15 K, 101 kPa, x1 = 0.9033) of 2.799 ± 0.19 mPa·s. The viscosity (313.15 K, 101 kPa, x1 = 0.0549) was 1.338 ± 0.096 mPa·s, the viscosity (313.15 K, 101 kPa, x1 = 0.1816) was 1.343 ± 0.096 mPa·s and the viscosity (313.15 K, 101 kPa, x1 = 0.2715) was 1.393 ± 0.099 mPa·s. For the same compound, the viscosity (313.15 K, 101 kPa, x1 = 0.3602) was 1.447 ± 0.1 mPa·s, the viscosity (313.15 K, 101 kPa, x1 = 0.4477) was 1.521 ± 0.11 mPa·s and the viscosity (313.15 K, 101 kPa, x1 = 0.5352) was 1.626 ± 0.11 mPa·s. For the same compound, the viscosity (313.15 K, 101 kPa, x1 = 0.6411) was 1.805 ± 0.13 mPa·s, the viscosity (313.15 K, 101 kPa, x1 = 0.7239) was 1.967 ± 0.14 mPa·s and the viscosity (313.15 K, 101 kPa, x1 = 0.9033) was 2.515 ± 0.17 mPa·s. The viscosity (318.15 K, 101 kPa, x1 = 0.0549) was 1.213 ± 0.088 mPa·s, the viscosity (318.15 K, 101 kPa, x1 = 0.1816) was 1.247 ± 0.09 mPa·s and the viscosity (318.15 K, 101 kPa, x1 = 0.2715) was 1.281 ± 0.092 mPa·s. The viscosity (318.15 K, 101 kPa, x1 = 0.3602) was 1.334 ± 0.096 mPa·s, the viscosity (318.15 K, 101 kPa, x1 = 0.4477) was 1.403 ± 0.1 mPa·s and the viscosity (318.15 K, 101 kPa, x1 = 0.5352) was 1.514 ± 0.11 mPa·s. It also gave a viscosity (318.15 K, 101 kPa, x1 = 0.6411) of 1.665 ± 0.12 mPa·s, a viscosity (318.15 K, 101 kPa, x1 = 0.7239) of 1.8 ± 0.13 mPa·s and a viscosity (318.15 K, 101 kPa, x1 = 0.9033) of 2.226 ± 0.15 mPa·s.
